Results published in US9844521B2, “Pharmaceutical composition comprising ginger extract or shogaol” (UNIVERSITY-INDUSTRY COOPERATION GROUP OF KYUNG HEE …, priority 2008, dated 2017).

Assays:
[1] = test system: rat primary mesencephalic dopaminergic cells; assay: Protection of dopamine cells against 6-OHDA neurotoxicity (TH immunohistochemistry); format: cell-based; details: 0.01 μM, 10 μM 6-OHDA for 18 hours; 6-OHDA group 34.00±5.77% of the control
Method: Female Sprague-Dawley rats (2-week old) were used, and shogaol was obtained from WAKO Company (Japan).
Fetal mesencephalon tissues of Sprague-Dawley rats […] were desquamated, and mechanically dissociated by using a forcept. The tissues were treated with trypsin and the number of cells was counted, and the cells were seeded on a cover slip coated with poly-L-lysine (PLL), and then proliferated in an incubator including 5% CO2 and 95% air at a temperature of 37 °C for 5 days. A fetal bovine serum (FBS)-free media was treated with 0.01 μM or 0.1 μM of shogaol after the shogaol was diluted, or the ginger extract (the ethanol extract, the hexane fraction, the ethyl acetate fraction, the butanolfraction, and the water fraction prepared according to Example 1) after the ginger extract was diluted. […]
Cells immobilized by using 4% PFA were washed with PBS and then, dehydrated with 1% hydrogen peroxide for 15 minutes. […] After the color-producing using DAB, a cover slip was separated and then mounted on a slide by using a gel mount and the number of cells was counted.
Cells were color-produced by immunohistochemistry in the same manner as Experimental Example 3-1, and the number of cells was counted and the results are shown in FIGS. 8 and 9.

ICR mice = assay: Passive avoidance task (cognitive ability enhancement); format: in vivo, mouse; details: 5 mg/kg oral once per day for 3 days; control 165.50±23.39 seconds; p<0.05
Method: Male ICR mice having a weight of 25-28 g were obtained and nurtured in an animal laboratory at Kyunghee University Graduate School of East-West Medicine Science for 7 days for adaptation. Water and feed were freely supplied, and the temperature (22±2[…]), humidity (53±3%), and a cycle of brightness and darkness (12 hours) were automatically controlled. Shogaol used was obtained from WAKO Company (Japan).
Mice were divided into two groups, each of which consisted of 10 mice. A first group (control) was orally administered with 10% dimethyl sulfoxide in an amount of 5 ml per mouse weight kg for 3 days, and a second group was orally administered with 5 mg/kg of shogaol dissolved in 10% dimethyl sulfoxide for 3 days. […]
In a test device having an inner structure divided into two identical spaces with a door therebetween, on a first day, one space was bright and the other space was dark, and a test animal was allowed to stay in the bright space for 10 seconds and then the door was opened, and when the test animal moved toward the dark space, 0.25 mA of an electrical stimulation was applied to the feet of the test animal. After 24 hours, the same passive avoidance task was performed and a time during which the test animal stayed in the light space was measured. […]

[2] = test system: 2-vessel occlusion cerebral ischemia model; assay: 2-vessel occlusion cerebral ischemia model, neurons in CA1 of hippocampus; format: in vivo, mouse; details: 10 mg/kg in 10% tween 80, immediately after 2VO then once per day for 3 days
Method: 7-week old C57BL/6 based male mice (19-22 g) were obtained and nurtured in an animal laboratory at Kyunghee University Graduate School of East-West Medicine Science for one week or more for adaptation. Water and feed were freely supplied, and the temperature (22±2[…]), humidity (53±3%), and a cycle of brightness and darkness (12 hours) were automatically controlled.
Mice were divided into three groups, each of which consisted of 10 mice. Anesthesia was induced in an anesthetic gas (O2: 30%, N2O: 70%, and isoflurane: 2.0%) chamber, and mice of the respective groups were located on an operating table with their backs on the operating table. The skin of each mouse was cut upward by about 1.5 cm from a point where the upper limbs and an intermediate line meet, and then, facing common carotid arteries were exposed without damage of tissues. Tissues and nerves attached to the carotid arteries were dissociated and occlusion was performed thereon by using an aneurism clip for 25 minutes. In this regard, the temperature of the mice was measured by using a rectal thermometer and maintained at 37±0.5 □.
A sham control refers to a group obtained as described above except for the occlusion of the common carotid arteries. Medicine administration was performed immediately after a 2VO step, and thereafter, performed once per day for 3 days. […]

[3] = test system: salmonella typhimurium strains (TA 100, TA 1535, TA 98, and TA 1537); assay: Back mutation test (genotoxicity in bacteria), Salmonella strains; details: TA 100, TA 1535, TA 98, TA 1537; compared with negative control
Method: In order to evaluate genotoxicity in bacteria, a back mutation test was performed using histidine-requiring salmonella typhimurium strains (TA 100, TA 1535, TA 98, and TA 1537) and an E. coli strain (E. coli WP2 uvrA). As a result, a positive control has a substantially greater colony number than a negative control. […] Accordingly, it was confirmed that the ginger extract and shogaol all had stability in the genotoxicity test.

For `CCCCC/C=C/C(=O)CCc1ccc(O)c(OC)c1` [shogaol, (E)-1-(4-hydroxy-3-methoxyphenyl)dec-4-en-3-one], the “number of dopamine positive cells” value [1] was 57.25±5.65%, the latency time (ICR mice) was 240.63 ± 24.14 s and the “neuron apoptosis suppression efficacy in CA1” value [2] was 29.5±15.4 % of the 2VO step group. For the same molecule, the “colony number (back mutation)” value [3] was “the colony number was not increased”.
